Earlier results in patent US7829066B2, “Assay for anti-metastatic agents” (Memorial Sloan-Kettering Cancer Center, priority 2006, dated 2010).

Test system: metastatic tumors
Details: stated as known

## Avastin: an anti-VEGF inhibitor that is known to inhibit metastatic tumors
  inhibition of metastatic tumors: known to inhibit metastatic tumors
